Assay results as given in patent publication US7425579B2, “Methods for inhibiting activity of polyamine transporters” (Universite Laval, priority 1998, dated 2008).
Like-named read-outs stand apart in the source and are kept apart here.

Legend:
[1] = system: mammalian polyamine carrier; test: Determination of polyamine uptake activity: inhibition of diamine and polyamine transport in T-47D cells; assay type: cell-based, human; conditions: for Ki: mean±SD; for Km: substrate itself
Method: The rate of diamine and polyamine transport was determined in T-47D and ZR-75-1 cells incubated in serum-free RPMI 1640 medium as previously described (U.S. Pat. No. 6,083,496; Covassin et al. (1999) Bioorg. Med. Chem. Lett. 9, 1709-1714), using 20 μM [^3H]putrescine (179 Ci/mol), 5 μM [^3H]spermidine (246 Ci/mol) and 3 μM [^14C]spermine (300-400 mCi/mol) respectively, as substrates for a 20-min assay period. Uptake activity was expressed per amount of DNA as fluorometrically determined using 3,5-diaminobenzoic acid (Simard et al. (1990) Endocrinology 126, 3223-3231). Kinetic parameters of polyamine transport inhibition for the transport antagonists were determined by Lineweaver-Burke analysis of uptake activity in the presence of 0.1 μM [^3H]putrescine, 0.03 μM [^3H]spermidine, and 0.01 μM [^14C]spermine plus increasing concentrations of nonradioactive substrate. For competitive inhibitors, Ki values were estimated by iterative curve fitting for sigmoidal equations describing transport rates in the presence of increasing concentrations of antagonist, using the Cheng-Prusoff equation for competitive inhibition (U.S. Pat. No. 6,083,496).
The ability of BSD and BNSD compounds to inhibit uptake of the main natural substrates of the mammalian polyamine carrier, namely putrescine, spermidine and spermine, was evaluated using T-47D human breast cancer cells (Table 1).
Data are presented as the mean±SD of at least two independent determinations of IC50 values, each based on triplicate determinations of uptake velocity at increasing inhibitor concentrations.
The potency of the polyamines and their xylylated dimers as competitive inhibitors of spermidine transport was evaluated in the T-47D human breast cancer cell line (Table 2).

[2] = system: T-47D cells; test: Reversal of DFMO-induced cytostasis by exogenous spermidine in T-47D cells; assay type: cell-based, human; conditions: T-47D cells with extracellular spermidine and DFMO
Method: FIGS. 6A, 6B, 6C and 6D are graph showing that antagonism of DFMO-induced cytostasis by exogenous spermidine depends on the polyamine and linker structure of the compounds used in a method according to a preferred embodiment of the invention. In particular, T-47D cells were grown for 8-9 d with the indicated concentrations of spermidine in medium containing 1 mM aminoguanidine, in the presence of DFMO (●), transport inhibitor (□), DFMO plus transport inhibitor (▪), or in the absence of either agent (∘), and total DNA content per culture was then determined. Panels A, B, C, and D describe the effect of BNSD-X, BSD-X, BNSD-3 and BSD-3, respectively. Data are presented as the mean±SD for triplicate cultures from one out of at least two identical experiments;
FIGS. 8A and 8B are graphs representing the time course of the effect of a compound used in a method according to a preferred embodiment of the invention on rescue of DFMO-induced cytostasis by exogenous spermidine. In particular, at time zero, T-47D (panel A) or CHO-K1 (panel B) were seeded at 1×10^4 or 5×10^3 cells/well, respectively, in medium containing 1 mM aminoguanidine, plus either 0.3 μM spermidine (Spd, ●), 2 mM DFMO (□), Spd+DFMO (▪), 50 μM (A) or 100 μM (B) BNSD-X (Δ), BNSD-X+Spd (▴), BNSD-X+DFMO (□), BNSD-X+Spd+DFMO (▾), or vehicle only (∘). At the indicated time, total DNA content/well was determined. Data are presented as the mean±SD for triplicate cultures from one representative experiment;
To determine the ability of polyamine transport antagonists to potentiate DFMO-induced inhibition of cell proliferation in the presence of exogenous polyamines, cells were grown for the indicated period in growth medium supplemented with 1 mM aminoguanidine, and either DFMO (1 to 5 mM), the indicated transport inhibitor (50 or 100 μM), or the combination thereof, as well as increasing concentrations of spermidine (0.1 to 300 μM). Fresh medium was added every other day, and cell mass was determined at various time points during the period of exponential growth, or at the end of the experimental period. For the latter experiments, the FBS supplement was replaced with dextran-coated charcoal-treated FBS (5%, v/v) plus 0.5 μg/ml insulin in the case of T-47D, ZR-75-1 and MCF-7 cells (U.S. Pat. No. 6,083,496).

[3] = system: MDA-MB-231 human breast cancer xenograft; test: MDA-MB-231 human breast cancer xenograft in nude mice; assay type: in vivo, immunodeficient CD-1 mice; conditions: 39 d
Method: (§1) In particular, the mice have been treated with the following compounds: BNSD-X (1% w/v) (●), 0.3 (w/v) DFMO (□), 0.3% DFMO+BNSD-X (▪), 1% (w/v) DFMO (Δ), or 1% DFMO+BNSD-X (▴). Drugs were dissolved in drinking water which was given ad libitum to the animals. Control mice (∘) received distilled water only;
as §1, with “only; and” for “only;”
In particular, these compounds are BNSD-X (1% w/v), 0.3 (w/v) DFMO, 0.3% DFMO+BNSD-X, 1% (w/v) DFMO, or 1% DFMO+BNSD-X Drugs were dissolved in drinking water which was given ad libitum to the animals. Control mice received distilled water only.
For human xenograft experiments, athymic CD-1 mice were inoculated with 5×10^6 MDA-MB-231 human breast cancer cells (grown in tissue culture incubators to mid-exponential phase) in both sides of the inguinal mammary fat pad. After ˜2 weeks, when the tumor had reached a diameter ˜4 mm (as measured with a caliper), control mice were paired to treated ones in accordance with tumor volume (time zero). Animals were allowed free access to water containing 0, 0.3 or 1% DFMO (w/v), plus or minus 1% (w/v) BNSD-X (7 mice/experimental group). Tumor volume (V) was measured twice weekly with a caliper in 2 dimensions using the approximation V=(L×w^2)/2, where L is the length and w is the width of the xenograft (Bandyopadhyay et al., (2002) Cancer Res. 62:4690-4695). Animals were sacrificed after 39 d (i.e. when tumor size in control mice had reached about 500 mm^3). Mammary tumors were be excised and weighed.
The efficacy of BNSD-X as a chemotherapeutic agent was assessed in the MDA-MB-231 model of human breast cancer xenograft in the nude mouse, a model which is known to be sensitive to polyamine depletion by DFMO (Weeks et al., (2000) Exp Cell Res. 261:293-302). For that purpose, MDA-MB-231 cells were injected in the left and right mammary fat pads of immunodeficient CD-1 mice. Mice were then allowed to drink either BNSD-X at the optimal concentration (1%, w/v), as well as DFMO at either 0.3% or 1% (w/v) plus or minus 1% BNSD-X for 39 days before sacrificing the animals and measuring total final tumor mass (FIG. 12-14). The BNSD-X solution alone or with 0.3% DFMO led to a slight (˜7%) reduction of body weight, which was attenuated by the addition of 1% DFMO (FIG. 13) However, this effect of body weight could largely be accounted on the decreased tumor burden in the BNSD-X treated animals (FIG. 14). […]

[4] = system: CHO-K1 cells; test: Determination of intracellular polyamine contents in CHO-K1 cells; assay type: cell-based, Chinese hamster
Method: At the indicated time, cells were harvested for the determination of putrescine (A), spermidine (B) and spermine contents (C). Data are presented as the mean±SD for triplicate cultures from one representative experiment; […] At the indicated time intervals, medium was removed, cell monolayers were rinsed twice: with 10 ml of ice-cold Ca^2+/Mg^2+-free phosphate-buffered saline (PBS) (2.7 mM KCl, 1.5 mM KH2PO4, 8.1 mM Na2HPO4, 137 mM NaCl), and cells were harvested by low-speed centrifugation (2400 g for 5 min at 4° C.). […] Polyamine content was then determined by ion-pair reverse phase HPLC with fluorometric detection after post-column derivatization with o-phthaldialdehyde as described (U.S. Pat. No. 6,083,496). […] Pat. No. 6,083,496).

[5] = T-47D breast cancer cells, read-out: Ki, inhibition of [3H]putrescine uptake
[6] = T-47D breast cancer cells, read-out: Ki, inhibition of [3H]spermidine uptake
[7] = T-47D breast cancer cells, read-out: Ki, inhibition of [14C]spermine uptake
[8] = T-47D human breast cancer cells, calculated from IC50, read-out: Ki for the inhibition of spermidine transport (Table 2)

| Compound | Ki [1, 5] [nM] | Ki [1, 6] [nM] | Ki [1, 7] [nM] | further results |
| --- | --- | --- | --- | --- |
| NCCCN(CCCN)CCN(CCCN)CCCN [18a] | 1200 ± 200 | 17300 ± 1400 | 20400 ± 6900 |  |
| NCCCCN(CCCN)CCN(CCCN)CCCCN [18b] | 650 ± 70 | 3000 ± 500 | 5900 ± 1100 |  |
| NCCCCN(CCCN)CCCN(CCCN)CCCCN [19b] | 240 ± 30 | 1700 ± 400 | 2800 ± 600 | effect on spermidine-mediated reversal of DFMO-induced growth inhibition, T-47D [2]: significantly potentiated DFMO-induced cytostasis |
| NCCCN(CCCN)CCCCN(CCCN)CCCN [20a] | 720 ± 200 | 4900 ± 100 | 4300 ± 700 |  |
| NCCCCN(CCCN)CCCCN(CCCN)CCCCN [20b] | 520 ± 60 | 2400 ± 400 | 6200 ± 600 |  |
| NCCCN(CCCN)CCCCCN(CCCN)CCCN [21a] | 540 ± 110 | 3100 ± 500 | 2600 ± 700 |  |
| NCCCCN(CCCN)CCCCCN(CCCN)CCCCN [21b] | 570 ± 100 | 830 ± 80 | 8000 ± 1100 |  |
| NCCCN(CCCN)CCCCCCN(CCCN)CCCN [22a] | 720 ± 180 | 2400 ± 300 | 820 ± 100 |  |
| NCCCCN(CCCN)CCCCCCN(CCCN)CCCCN [22b] | 910 ± 110 | 690 ± 160 | 6300 ± 800 |  |
| NCCCN(CCCN)CCCCCCCCN(CCCN)CCCN [23a] | 660 ± 60 | 7500 ± 1600 | 7000 ± 1000 |  |
| NCCCCN(CCCN)CCCCCCCCN(CCCN)CCCCN [23b] | 440 ± 70 | 3000 ± 200 | 3600 ± 700 |  |
| NCCCN(CCCN)CCCCCCCCCCN(CCCN)CCCN [24a] | 1600 ± 400 | 1500 ± 200 | 2400 ± 700 |  |
| NCCCCN(CCCN)CCCCCCCCCCN(CCCN)CCCCN [24b] | 140 ± 10 | 1200 ± 200 | 1900 ± 300 |  |
| NCCCN(C/C=C/CN(CCCN)CCCN)CCCN [25a] | 100 ± 10 | 1800 ± 100 | 1500 ± 100 |  |
| NCCCCN(C/C=C/CN(CCCN)CCCCN)CCCN [25b] | 270 ± 40 | 2000 ± 500 | 1600 ± 200 |  |
| NCCCN(CC#CCN(CCCN)CCCN)CCCN [26a] | 2600 ± 400 | 25600 ± 4000 | 12800 ± 2200 |  |
| NCCCCN(CC#CCN(CCCN)CCCCN)CCCN [26b] | 1900 ± 400 | 16900 ± 2000 | 27700 ± 3200 |  |
| NCCCN(CCCN)Cc1cccc(CN(CCCN)CCCN)c1 [27a] | 640 ± 80 | 3000 ± 500 | 5700 ± 1300 |  |
| NCCCCN(CCCN)Cc1cccc(CN(CCCN)CCCCN)c1 [27b] | 190 ± 50 | 1600 ± 100 | 2400 ± 300 |  |
| NCCCNCCCCN(CCCN)Cc1ccc(CN(CCCN)CCCCNCCCN)cc1 [BSM-X] |  |  |  | fold lower apparent Ki for spermidine uptake inhibition relative to the spermine monomer ([1]; T-47D cells): 2 fold; Ki [1, 8]: 1100 ± 100 nM |
| NCCCNCCCC(NCCCN)C(=O)NCCSSCCNC(=O)C(CCCNCCCN)NCCCN (centres unmarked) [DESC, 2,2′-dithiobis(N-ethyl-spermine-5-carboxamide), reference compound] | 3100 ± 400 | 12600 ± 1400 | 15900 ± 4000 |  |
| NCCC[C@](N)(C(=O)O)C(F)F [DFMO, α-difluoromethylornithine, reference compound] |  |  |  | reduction of tumor burden ([3]; DFMO alone (0.3%)): 50±6%; growth inhibition (tumor) ([3]; DFMO alone (1%)): 73±7%; decrease of the intracellular spermidine pool by DFMO alone ([4]; after a 24-h lag period, up to 4 days): 80%; effect on intracellular putrescine content ([4]; single agent): rapidly led to putrescine depletion; effect on intracellular spermine content ([4]; up to 4 days): little effect on spermine content |
| NCCCCN [Putrescine, 1,4-diaminobutane, reference compound] |  |  |  | Km ([1]; T-47D breast cancer cells, read-out: Km for [3H]putrescine uptake): 7.4 ± 1.1 µM; Ki [1, 8]: > 500000 nM |
| NCCCNCCCCNCCCN [Spermine, reference compound] | 650 ± 120 | 920 ± 80 |  | Km ([1]; T-47D breast cancer cells, read-out: Km for [14C]spermine uptake): 2.7 ± 0.4 µM; Ki [1, 8]: 2100 ± 200 nM |
